# Non-standard residues stand in square brackets, D forms with d. Residues, ends and D or L forms follow the SMILES beside them. Nle = CCCC[C@H](N)C(=O)O
# Tests used:
# psoriasis = details: provided either orally or topically; cited from earlier work
# [1] = test system: tumor cells (for example, HL-60, U937, and M-1); details: tumor cells that possess a receptor for 1,25(OH)2 D3; cited from earlier work
# [2] = test system: cultured human keratinocytes; details: cited from earlier work
# [3] = test system: cultured human keratinocytes; assay: Keratinocyte culture: counts of total cells, basal cells and cornified envelopes; type: cell-based; details: for proliferation and terminal differentiation of cultured human keratinocytes (conclusion from the results): peptide by itself
# Procedure: Keratinocytes were grown in culture as follows. NIH 3T3 cells were plated at 0.5×10^5 cells per 35-mm tissue-culture dish, and two days later were lethally irradiated with a cobalt-60 source (5000 rads). Keratinocytes were obtained from neonatal foreskin after overnight trypsinization at 4° C. and treatment with 0.02% EDTA. Keratinocytes were plated in 2 ml of serum-free medium per dish on the lethally irradiated 3T3 cells. Each experiment was performed on primary or secondary keratinocyte cultures obtained from different skin samples.
# In addition, 1,25-(OH)2 D3 was tested, alone and in combination with PTH (7-34), and PTH (1-34) and PTH (7-34) were tested together.
# Beginning at one week in culture, groups of triplicate plates of keratinocytes were incubated with the aforementioned compounds or vehicle alone. After one week of dosing, the medium was removed from each culture and centrifuged, and the pellet was resuspended for the counting of the desquamated floater cells. A hemacytometer was used to count the different cell types under a phase-contrast microscope. The attached cells were then trypsinized for 30-40 min with 0.1 EDTA and 0.1% trypsin and then neutralized with medium. The keratinocytes were pelleted and resuspended in a known volume of medium. Duplicate aliquots were taken for counting the basal (small, rounded) and squamous (larger, irregular-shaped, flattened) cells. The remaining cells were pelleted and treated with 10 mM Tris-HCl (pH 7.4) with 1% beta-mercaptoethanol and 1% sodium dodecyl sulfate (SDS) at room temperature for 10 min. Only cells with cornified envelopes were present after this treatment.
# Each culture was thus evaluated for its total cell content, number of basal cells, and cornified envelopes, as described above.
# [4] = test system: cultured human fibroblasts; details: cited from earlier work
# [5] = test system: PTH-stimulated biologic responses; details: cited from earlier work
# [6] = test system: wounds made through the skin with a 6 mm dermal biopsy punch; assay: In vivo skin punch assay; design: species or system Sprague-Dawley rats; details: rats, 2.0 μg topically in normal saline, immediately after biopsy and each day for 3 days, FIG. 8
# Procedure: Male Sprague-Dawley rats were anesthetized by intraperitoneal injection of sodium pentobarbital, their dorsal skin shaved, and wounds made through the skin with a 6 mm dermal biopsy punch. Immediately after the biopsy, and each subsequent day for 3 days, groups of rats received topically 2.0 μg of human PTH (1-34) in normal saline or human PTH (7-34) in normal saline; a control group received normal saline without peptide. Four rats from each group were killed by asphyxiation in a chamber of carbon dioxide, and the extent of wound healing was evaluated as follows. Wounds were photographed with the wound surface perpendicular to the axis of the lens. After development of the film, wound images were projected on to paper at a fixed distance, traced with a pencil, and cut out with sharp scissors. The relative sizes of the wounds were assessed by weighing the cut-out paper tracings. Percent healing was calculated from the average decrease in wound area for each group.
# [7] = test system: PTH-mediated elevation of plasma calcium; details: cited from earlier work
# [8] = test system: hair obtained from human subjects; assay: In vitro hair growth assay; type: cell-based
# Text: Candidate peptides may be screened for their ability to stimulate hair growth as follows. […] Hair is sampled from 4 sites of the scalp (frontal, occipital, temporal, and nuchal) and the following body areas: beard, axilla, pubic, chest, forearm, and leg, using the method described by van Scott et al. (J. Invest. Derm. 29: 197, 1957). Immediately after plucking, the hairs are placed in chilled Krebs-Ringer phosphate buffer, pH 7.4. Growing (anagen) and resting (telogen) hairs are differentiated either by gross examination or under low microscopic magnification. Generally, 2 to 4 anagen hairs and 10 to 30 telogen hairs are incubated in duplicate, in 2 ml. centrifuge tubes, in a total volume of 1 ml of incubation mixture consisting of Krebs-Ringer phosphate buffer, pH 7.4, glucose (9 mM), and candidate peptide; control incubation mixture lacks peptide. Samples are incubated with shaking at 37° C. in an air atmosphere. […]
# DNA content is determined by the method of Kissane and Robins (J. Biol. Chem. 233: 184, 1958) as modified by Santoianni and Ayala (J. Invest. Derm. 45: 99, 1965). […] Fluorescence is asssayed on an Aminco-Bowman Spectrofluorometer with the excitation wavelength set at 396 nm and the emission wavelength at […]. […] Routinely, standards containing 0.1, 0.4, 0.8, 1.2, 1.6, and 3.2 μg of DNA, and a blank are read with the samples.
# [9] = PTH (7-34) together with the agonist
molecule,measurement,setting,value
"C=C1/C(=C\C=C2/CCC[C@]3(C)[C@@H]([C@H](C)CC[C@@H](O)C(C)C)CC[C@@H]23)C[C@@H](O)C[C@@H]1O [1,24-dihydroxyvitamin D3]",value in the treatment of psoriasis,psoriasis,of value in the treatment of psoriasis
"C=C1/C(=C\C=C2/CCC[C@]3(C)[C@@H]([C@H](C)CCCC(C)(C)O)CC[C@@H]23)C[C@@H](O)C[C@@H]1O [1,25(OH)2 D3, 1,25-dihydroxyvitamin D3]",differentiation of tumor cells,[1],induces them to differentiate
same,proliferation of tumor cells,[1],inhibits their proliferation
same,value in the treatment of psoriasis,psoriasis,of value in the treatment of psoriasis
same,proliferation of cultured human keratinocytes,[2],inhibits the proliferation
same,terminal differentiation of keratinocytes,[2],induces keratinocytes to terminally differentiate
same,total number of cells and number of basal cells,"[3]; 1,25(OH)2 D3 alone, one week of dosing, FIGS. 2-5",decreased in a dose-dependent manner
same,"total number of cornified envelopes, percent of control","[3]; compound alone, FIGS. 6 and 7","increased, in a dose-dependent manner"
same,proliferation of cultured human fibroblasts,[4],inhibits the proliferation
"CCCC[C@H](NC(=O)[C@H](CO)NC(=O)[C@H](CO)NC(=O)[C@H](CC(C)C)NC(=O)[C@H](Cc1c[nH]cn1)NC(=O)[C@H](CCCCN)NC(=O)CNC(=O)[C@H](CC(C)C)NC(=O)[C@H](CC(N)=O)NC(=O)[C@H](Cc1c[nH]cn1)NC(=O)[C@H](CCCC)NC(=O)[C@H](Cc1ccccc1)NC(=O)[C@H](CCC(N)=O)NC(=O)[C@@H](NC(=O)[C@H](CCC(=O)O)NC(=O)[C@@H](N)CO)[C@@H](C)CC)C(=O)N[C@@H](CCC(=O)O)C(=O)N[C@@H](CCCNC(=N)N)C(=O)N[C@H](C(=O)N[C@@H](CCC(=O)O)C(=O)N[C@@H](Cc1c[nH]c2ccccc12)C(=O)N[C@@H](CC(C)C)C(=O)N[C@@H](CCCNC(=N)N)C(=O)N[C@@H](CCCCN)C(=O)N[C@@H](CCCCN)C(=O)N[C@@H](CC(C)C)C(=O)N[C@@H](CCC(N)=O)C(=O)N[C@@H](CC(=O)O)C(=O)N[C@H](C(=O)N[C@@H](Cc1c[nH]cn1)C(=O)N[C@@H](CC(N)=O)C(=O)N[C@@H](Cc1ccc(O)cc1)C(N)=O)C(C)C)C(C)C [PTH (3-34), [Nle^8, Nle^18, Tyr^34] bovine (3-34) PTH amide] (H-SEIQF[Nle]HNLGKHLSS[Nle]ERVEWLRKKLQDVHNY-NH2)",PTH-stimulated biologic responses in vitro,[5],can be inhibited
same,"total number of cornified envelopes, percent of control","[3]; compound alone, FIGS. 6 and 7","increased, in a dose-dependent manner"
same,proliferation of keratinocytes (agonist),[3]; concentration not given,inhibits proliferation
same,terminal differentiation of keratinocytes (agonist),[3]; concentration not given,induces terminal differentiation
same,total number of basal cells,"[3]; peptide alone at 10^-10 and 10^-8 M, one week of dosing",significantly decreased
same,proliferation and terminal differentiation of cultured human keratinocytes (conclusion from the results),[3],have the same effect as PTH (1-34)
"CSCC[C@H](NC(=O)[C@H](CO)NC(=O)[C@H](CO)NC(=O)[C@H](CC(C)C)NC(=O)[C@H](Cc1c[nH]cn1)NC(=O)[C@H](CCCCN)NC(=O)CNC(=O)[C@H](CC(C)C)NC(=O)[C@H](CC(N)=O)NC(=O)[C@H](Cc1c[nH]cn1)NC(=O)[C@H](CCSC)NC(=O)[C@@H](N)Cc1ccccc1)C(=O)N[C@@H](CCC(=O)O)C(=O)N[C@@H](CCCNC(=N)N)C(=O)N[C@H](C(=O)N[C@@H](CCC(=O)O)C(=O)N[C@@H](Cc1c[nH]c2ccccc12)C(=O)N[C@@H](CC(C)C)C(=O)N[C@@H](CCCNC(=N)N)C(=O)N[C@@H](CCCCN)C(=O)N[C@@H](CCCCN)C(=O)N[C@@H](CC(C)C)C(=O)N[C@@H](CCC(N)=O)C(=O)N[C@@H](CC(=O)O)C(=O)N[C@H](C(=O)N[C@@H](Cc1c[nH]cn1)C(=O)N[C@@H](CC(N)=O)C(=O)N[C@@H](Cc1ccc(O)cc1)C(N)=O)C(C)C)C(C)C [PTH (7-34), [Tyr^34] bovine PTH (7-34) amide]",wound healing (percent healing from decrease in wound area),[6],biologically effective in enhancing wound healing
same,PTH-like agonist activity,"[7]; rat, in vivo",devoid of PTH-like agonist activity
same,PTH-mediated elevation of plasma calcium,[7]; thyroparathyroidectomized rats in vivo,can inhibit
same,"keratinocyte antiproliferative and terminal differentiation-inducing activities of 1,25(OH)2 D3","[3]; PTH (7-34) against 1,25(OH)2 D3",blocks
same,antiproliferative and differentiation-inducing activities of PTH (1-34) and CFF (1-34) (antagonist),[3]; PTH (7-34) against PTH (1-34) and CFF (1-34),blocks
same,"response to 1,25(OH)2 D3 (cell numbers)","[3]; PTH (7-34) at 10^-7 M co-incubated with 1,25(OH)2 D3 at 10^-8 M",significantly decreased the response
same,effect of PTH (1-34) and CFF (1-34) on total number of cells and total number of basal cells,[3]; PTH (7-34) co-incubated with hPTH (1-34) or CFF (1-34),inhibited the effect
same,"antiproliferative and differentiation-inducing activities of each of 1,25(OH)2 D3, PTH (1-34), and CFF (1-34) (conclusion)",[3]; [9],can block
same,"effect of 1,25(OH)2 D3, PTH (1-34), and CFF (1-34) on cornified envelope development",[3]; [9],inhibited the effect
same,"total number of cornified envelopes, percent of control",[3]; peptide alone at 10^-8 M and 10^-7 M,no effect
same,total number of basal cells,"[3]; peptide alone at 10^-8 M and 10^-7 M, one week of dosing",no effect
same,proliferation and terminal differentiation of cultured human keratinocytes (conclusion from the results),[3],substantially no effect
"human PTH (7-34): human PTH (7-34), applied topically in normal saline in the skin punch assay; stimulates hair growth in vitro (LMHNLGKHLNSMERVEWLRKKLQDVHNF; Parathyroid hormone; UniProt P01270 38-65, looked up, fragment)",hair growth in vitro,[8],stimulates hair growth
same,wound healing (percent healing from decrease in wound area),[6],enhance wound healing

# Source: US5840690A, “Regulation of cell proliferation and differentation using peptides” (priority 1995, dated 1998)
